The text below walks through data of paper PMC9743095 (Journal of Medicinal Chemistry, 2022).

Assay [1] deals with MIA PaCa-2. Nature of the assay: cells. The class given is cell-based. On the procedure: (§1) The assay was contracted and carried out by WuXi AppTec (Shanghai) Co., Ltd. The tumor cell lines CCRF-CEM, HL-60, KG-1, MOLT-4, K562, MV4-11, THP-1, HEL92.1.7, NCI-H929, RPMI-8226, Jurkat, Z138, RL, HS445, HepG2, MCF-7, Bx-PC-3, HT29, MIA PaCa-2, and SW620 were seeded at cell densities of […] 10^3 cells/well in a 96-well plate the day before drug incubation. Then, the plates were incubated for 72 h with the different concentrations of compound to be tested. After the incubation period, 50 μL of MTS was added and the tumor cells were incubated for 4 h at 37 °C. The data were read and collected by a Spectra Max 340 absorbance microplate reader. The compounds were tested in duplicate with nine serial concentrations (3.16-fold titrations with 198 μM as the highest concentration), and the data were analyzed by XLfit software.

For assay [2], the system named is MCF-7. Nature of the assay: cells. In kind it is cell-based. The conditions noted are these: Homo sapiens, MCF7, 72 h. The protocol:
as §1

Assay [3] relates to THP-1. Nature of the assay: cells. In kind it is cell-based. On the procedure: as §1
Assay [4] relates to MOLT-4. Kind of assay: cells. The conditions noted are these: Homo sapiens. In kind it is cell-based. The protocol:
as §1

Assay [5] has as its system Jurkat. Nature of the assay: cells. The class given is cell-based. To be noted: Jurkat. The protocol: as §1
For assay [6], the system named is MV4-11. Kind of assay: cells. The class given is cell-based. The protocol:
as §1

In assay [7] the test system is BxPC-3. Nature of the assay: cells. In kind it is cell-based. The protocol: as §1
Assay [8] relates to Z138. Kind of assay: cells. In kind it is cell-based. On the procedure:
as §1

In assay [9] the test system is K562. Kind of assay: cells. The conditions noted are these: Homo sapiens. In kind it is cell-based. The protocol:
as §1

For assay [10], the system named is HT29. Kind of assay: cells. The class given is cell-based. On the procedure: as §1
Assay [11] relates to HEL92.1.7. Kind of assay: cells. In kind it is cell-based. The protocol:
as §1

Assay [12] relates to RL. Nature of the assay: cells. In kind it is cell-based. The protocol: as §1
For assay [13], the system named is HL-60. Kind of assay: cells. The conditions noted are these: Homo sapiens. The class given is cell-based. On the procedure:
as §1

The test system of assay [14] is CCRF-CEM. Kind of assay: cells. The class given is cell-based. To be noted: Homo sapiens, 72 h. On the procedure: as §1
Assay [15] deals with NCI-H929. Nature of the assay: cells. The class given is cell-based. The protocol: as §1
Assay [16] deals with HS445. Nature of the assay: cells. The class given is cell-based. On the procedure:
as §1

For assay [17], the system named is SW620. Kind of assay: cells. In kind it is cell-based. On the procedure: as §1
For assay [18], the system named is HepG2. Kind of assay: cells. In kind it is cell-based. To be noted: Homo sapiens, 72 h; HepG2, maximum inhibitory effect over concentration range; read-out: MI%. On the procedure:
as §1

The test system of assay [19] is KG-1. Nature of the assay: cells. The conditions noted are these: Homo sapiens, KG-1, 72 h, read-out: LC50. The class given is cell-based. The protocol: as §1
Assay [20] relates to RPMI-8226. Nature of the assay: cells. In kind it is cell-based. The protocol:
as §1

The conditions of assay [21]: cited from earlier work.
Setting [22] is: Homo sapiens, 72 h, read-out: LC50.
Setting [23] is: maximum inhibitory effect over concentration range.

As for `CC(=O)O[C@H]1C(=O)[C@@]2(C)[C@H]([C@H](OC(=O)c3ccccc3)[C@]3(O)C[C@H](OC(=O)[C@H](O)[C@@H](NC(=O)c4ccccc4)c4ccccc4)C(C)=C1C3(C)C)[C@]1(OC(C)=O)CO[C@@H]1C[C@@H]2O` [PTX, paclitaxel, reference compound], the CC50 turned out to be 2 nM in assay [1] (Homo sapiens, MIA PaCa-2, 72 h, read-out: LC50); 3 nM in [2] (read-out: LC50); 30 nM in assay [3] (Homo sapiens, THP-1, 72 h, read-out: LC50); 2 nM in [4] (MOLT-4, 72 h, read-out: LC50); 5 nM in assay [5] (setting [22]); 10 nM in assay [6] (Homo sapiens, MV4-11, 72 h, read-out: LC50). Besides, the CC50 in assay [7] (Homo sapiens, BXPC-3, 72 h, read-out: LC50) was above 500 nM; in [8] (Homo sapiens, Z-138, 72 h, read-out: LC50), 2 nM; in assay [9] (K562, 72 h, read-out: LC50), 8 nM; in [10] (Homo sapiens, HT-29, 72 h, read-out: lC50), 4 nM; in assay [11] (Homo sapiens, HEL 92.1.7, 72 h, read-out: LC50), 20 nM; in [12] (setting [22]) it was 3 nM. For the same compound, the CC50 in assay [13] (HL-60, 72 h, read-out: LC50) turned out to be 4 nM; in assay [14] (read-out: LC50), 3 nM; in assay [15] (Homo sapiens, NCI-H929, 72 h, read-out: LC50) it was 3 nM; in assay [16] (Homo sapiens, Hs 445, 72 h, read-out: LC50) it was 10 nM; in assay [17] (Homo sapiens, SW-620, 72 h, read-out: LC50) it was 20 nM; in assay [19] it was 70 nM. Besides, in assay [20] (Homo sapiens, RPMI-8226, 72 h, read-out: LC50), the CC50 amounted to 3 nM. Also, the MI% in assay [1] (MIA PaCa-2, maximum inhibitory effect over concentration range) is 87%; in assay [3] (THP-1, maximum inhibitory effect over concentration range), 72%; in [5] (setting [23]) it was 97%; in assay [6] (MV4-11, maximum inhibitory effect over concentration range) it was 99%; in [7] (BxPC-3, maximum inhibitory effect over concentration range), 42%; in assay [8] (Z138, maximum inhibitory effect over concentration range), 99%. Moreover, the MI% in [10] (HT29, maximum inhibitory effect over concentration range) worked out at 75%; in assay [11] (HEL92.1.7, maximum inhibitory effect over concentration range), 83%; in assay [12] (setting [23]) it was 83%; in assay [15] (NCI-H929, maximum inhibitory effect over concentration range), 82%; in assay [16] (HS445, maximum inhibitory effect over concentration range), 74%; in [17] (SW620, maximum inhibitory effect over concentration range) it was 96%. The same compound registered an MI% in assay [20] (RPMI-8226, maximum inhibitory effect over concentration range) of 91%. In addition, the Emax in assay [2] (MCF-7, maximum inhibitory effect over concentration range, read-out: MI%) worked out at 79%; in [4] (72 h, MOLT-4, maximum inhibitory effect over concentration range, read-out: MI%), 97%; in assay [9] (72 h, K562, maximum inhibitory effect over concentration range, read-out: MI%), 94%; in assay [13] (72 h, HL-60, maximum inhibitory effect over concentration range, read-out: MI%) it was 96%; in assay [14] (maximum inhibitory effect over concentration range, read-out: MI%), 95%; in [18] it was 54%.

In the case of `CC(C)OC(=O)[C@H](C)N[P@](=O)(CO[C@H](C)Cn1cnc2c(N)ncnc21)Oc1ccccc1` [TAF, Tenofovir Alafenamide], the “Sp isomer fold more active than the Rp isomer” value in [21] is reported as 10 fold.

Take `CC(C)OC(=O)[C@H](C)N[P@](=O)(OC[C@H]1O[C@@H](n2ccc(=O)[nH]c2=O)[C@](C)(F)[C@@H]1O)Oc1ccccc1` [sofosbuvir]: the “Sp isomer fold more active than the Rp isomer” value in assay [21] is 18 fold.
